Test results taken from US20190031665A1, “DERIVATIVES OF PYRROLOIMIDAZOLE OR ANALOGUES THEREOF WHICH ARE USEFUL FOR THE TREATMENT OF INTER ALIA CANCER” (EMCURE PHARMACEUTICALS LIMITED, priority 2016, published 2019).

Columns and labels:
[1] = target: T1, human indoleamine 2,3-dioxygenase 1 (hIDO1) (Homo sapiens, UniProt P14902); assay: In-vitro human indoleamine 2,3-dioxygenase 1 (IDO1) enzyme assay; type: biochemical; conditions: for IC50: hIDO1 enzyme; for inhibition at 1 µM: hIDO1 enzyme at 1.0 μM concentration; for inhibition at 10 µM: hIDO1 enzyme at 10.0 μM concentration
T1 construct: His tag (N); purchased BPS Bioscience, San Diego, Calif., USA; host or cells: E. coli
T1 sequence (P14902 whole entry): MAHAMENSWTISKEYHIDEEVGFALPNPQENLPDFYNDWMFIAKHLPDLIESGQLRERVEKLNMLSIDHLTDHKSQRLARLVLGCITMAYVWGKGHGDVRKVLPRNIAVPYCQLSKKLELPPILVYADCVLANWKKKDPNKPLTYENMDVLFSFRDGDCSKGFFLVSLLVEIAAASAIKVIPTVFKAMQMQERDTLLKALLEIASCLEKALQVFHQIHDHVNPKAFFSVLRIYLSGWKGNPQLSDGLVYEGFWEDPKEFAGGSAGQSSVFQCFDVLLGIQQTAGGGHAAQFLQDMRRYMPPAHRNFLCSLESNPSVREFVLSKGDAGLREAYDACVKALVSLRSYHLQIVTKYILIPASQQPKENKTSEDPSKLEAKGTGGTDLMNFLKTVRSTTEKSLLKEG
Summary of the method: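 His-tagged hIDO1 (E. coli, 50 ng) incubated with 80 μM tryptophan, 10 mM ascorbate, 10 μM methylene blue, catalase and 0.01% Tween-20 in 50 mM sodium phosphate pH 6.5, 60 min, 37 °C. Piperidine converts N-formylkynurenine to fluorescent NFK-PIP (ex 400/em 500 nm); IC50 by nonlinear regression.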

[2] = target: T2, human tryptophan 2,3-dioxygenase (hTDO) (Homo sapiens, UniProt P48775); assay: In-vitro human tryptophan 2,3-dioxygenase (TDO) enzyme assay; type: biochemical; conditions: for inhibition at 1 µM: hTDO enzyme at 1.0 μM concentration; for inhibition at 10 µM: hTDO enzyme at 10.0 μM concentration
T2 construct: His tag (N); purchased BPS Bioscience, San Diego, Calif., USA; host or cells: E. coli
T2 sequence (P48775 whole entry): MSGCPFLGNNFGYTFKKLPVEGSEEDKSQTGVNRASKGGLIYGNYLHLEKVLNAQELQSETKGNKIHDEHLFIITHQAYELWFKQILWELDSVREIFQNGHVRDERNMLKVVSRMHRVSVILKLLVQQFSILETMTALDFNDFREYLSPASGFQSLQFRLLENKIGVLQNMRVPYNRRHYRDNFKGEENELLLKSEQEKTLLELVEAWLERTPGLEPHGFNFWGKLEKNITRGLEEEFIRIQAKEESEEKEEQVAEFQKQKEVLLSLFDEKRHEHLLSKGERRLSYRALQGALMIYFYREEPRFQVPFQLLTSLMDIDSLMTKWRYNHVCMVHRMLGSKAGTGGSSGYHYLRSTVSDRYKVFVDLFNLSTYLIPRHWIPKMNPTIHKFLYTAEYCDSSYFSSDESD
Summary of the method: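 N-His-tagged hTDO expressed in E. coli (125 ng) incubated with 200 μM L-tryptophan, 100 mM sodium phosphate pH 7.0, 0.01% Tween-20, 100 μM ascorbate, 60 min at 37 °C. Product converted with 200 mM piperidine (65 °C, 20 min) to NFK-PIP, fluorescence 400/500 nm; IC50 by nonlinear regression.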

IC50 [1] [nM]	inhibition at 1 µM [1] [%]	inhibition at 10 µM [1] [%]	inhibition at 1 µM [2] [%]	inhibition at 10 µM [2] [%]	SMILES
< 500	≥ 50	≥ 50	≥ 50	–	CC1=C(c2ccccc2)C(C[C@H](O)C2CCC(C(=O)Nc3ccncc3)CC2)n2cncc21 (stereo partly drawn) [Example 119]
< 500	≥ 50	≥ 50	≥ 50	≥ 50	CC1=C(c2ccccc2)C(CC(=O)c2ccc3c(c2)OCO3)n2cncc21 (stereo not drawn) [Example 28, 1-Benzo[1,3]dioxol-5-yl-2-(7-methyl-6-phenyl-5H-pyrrolo[1,2-c]imidazol-5-yl)-ethanone]
–	≤ 50	≥ 50	≤ 50	–	CC1=C(c2ccccc2)C(CC(=O)C2CN(C(=O)c3ccccc3)C2)n2cncc21 (stereo not drawn) [Example 159, 1-(1-Benzoyl-azetidin-3-yl)-2-(7-methyl-6-phenyl-5H-pyrrolo[1,2-c]imidazol-5-yl)-ethanone]
< 500	≥ 50	≥ 50	≥ 50	–	CCOC(=O)C1CCC([C@@H](O)CC2C(c3ccccc3)=C(C)c3cncn32)CC1 (stereo in doubt) [Example 189]
–	≤ 50	≥ 50	≥ 50	–	CC1=C(c2ccccc2)C(CC(=O)C2CCC(C(=O)Nc3ccc(F)cc3F)CC2)n2cncc21 (stereo not drawn) [Example 110]
–	≤ 50	–	≥ 50	–	CC1=C(c2ccccc2F)C(CC(=O)C2CCC(O)CC2)n2cncc21 (single isomer, unassigned) [Example 97]
–	≤ 50	≥ 50	≤ 50	–	CC1=C(c2ccccc2)C(CC(O)C2CCC(O)CC2)n2cncc21 (single isomer, unassigned) [Example 121]
–	≥ 50	≥ 50	≥ 50	–	CC1=C(c2ccccc2)C(CC(=O)C2CCC(c3ccccc3)CC2)n2cncc21 (stereo not drawn) [Example 136]
–	≤ 50	≥ 50	–	≥ 50	CC1=C(c2cccc(F)c2)C(CC(=O)c2ccccc2)n2cncc21 (stereo not drawn) [Example 15, 2-[6-(3-Fluoro-phenyl)-7-methyl-5H-pyrrolo[1,2-c]imidazol-5-yl]-1-phenyl-ethanone]
–	≥ 50	≥ 50	≥ 50	–	CC1=C(c2ccccc2)C(CC(=O)c2ccc3c(c2)CCCC3)n2cncc21 (stereo not drawn) [Example 47, 2-(7-methyl-6-phenyl-5H-pyrrolo[1,2-c]imidazol-5-yl)-1-(5,6,7,8-tetrahydronaphthalen-2-yl)ethan-1-one]
–	≤ 50	≥ 50	≤ 50	–	CC1=C(c2ccccc2)C(CC(=O)c2ccc(C3CCCCC3)cc2)n2cncc21 (stereo not drawn) [Example 73]
–	≤ 50	≥ 50	≥ 50	–	CC1=C(c2ccccc2)C(CC(=O)C2CCOCC2)n2cncc21 (stereo not drawn) [Example 100]
< 500	≥ 50	≥ 50	≥ 50	–	CC1=C(c2ccccc2)C(C[C@H](O)C2CCC(C(=O)NC3CCCCC3)CC2)n2cncc21 (stereo partly drawn) [Example 126]
–	≤ 50	≤ 50	≤ 50	–	CC1=C(c2ccccc2)C(CC(=O)C2CCCN2C(=O)c2ccccc2)n2cncc21 (stereo not drawn) [Example 115]
–	≤ 50	≥ 50	≤ 50	–	CCOC(=O)N1CCC(C(=O)CC2C(c3ccccc3)=C(C)c3cncn32)CC1 (stereo not drawn) [Example 146]
> 500	≥ 50	≥ 50	≥ 50	–	CC1=C(c2ccccc2)C(CC(=O)C2CCC(C(=O)Nc3ccncc3)CC2)n2cncc21 (stereo not drawn) [Example 117]

More lines, now with the values behind:

SMILES	IC50 [1] [nM]	inhibition at 1 µM [1] [%]	inhibition at 10 µM [1] [%]	inhibition at 1 µM [2] [%]	inhibition at 10 µM [2] [%]
CC1=C(c2ccccc2)C(CC(O)C2CCN(C(=O)Nc3ccccc3)CC2)n2cncc21 (stereo not drawn) [Example 158, 4-[1-Hydroxy-2-(7-methyl-6-phenyl-5H-pyrrolo[1,2-c]imidazol-5-yl)-ethyl]-piperidine-1-carboxylic acid phenyl amide]	< 500	≥ 50	≥ 50	≥ 50	–
CC1=C(c2ccccc2)C(CC(O)C2CCN(C(=O)C(C)C)CC2)n2cncc21 (stereo not drawn) [Example 187]	> 500	≥ 50	≥ 50	≤ 50	–
O=C(CC1C2=C(CCCC2)c2cncn21)c1cccc(OCc2ccccc2)c1 (stereo not drawn) [Example 7]	–	–	≤ 50	–	≥ 50
CC1=C(c2ccccc2)C(CC(=O)c2ccc(C(=O)Nc3ccccc3)cc2)n2cncc21 (stereo not drawn) [Example 77]	< 500	≥ 50	≥ 50	≥ 50	–
CC1=C(c2ccccc2)C(CC(O)C2CCC(=NO)CC2)n2cncc21 (stereo not drawn) [Example 178, 4-[1-Hydroxy-2-(7-methyl-6-phenyl-5H-pyrrolo[1,2-c]imidazol-5-yl)-ethyl]-cyclohexanone oxime]	< 500	≥ 50	≥ 50	≤ 50	–
CC1=C(c2ccccc2)C(CC(O)c2ccc(F)cc2)n2cncc21 (stereo not drawn) [Example 35, 1-(4-fluorophenyl)-2-(7-methyl-6-phenyl-5H-pyrrolo[1,2-c]imidazol-5-yl)ethan-1-ol]	–	≤ 50	≥ 50	≥ 50	–
CC1=C(c2ccccc2)C(CC(O)C2CCN(S(=O)(=O)c3ccccc3)CC2)n2cncc21 (stereo not drawn) [Example 145]	< 500	≥ 50	≥ 50	≥ 50	–
CC1=C(c2ccccc2)C(CC(=O)c2ccc(-c3cncnc3)cc2)n2cncc21 (stereo not drawn) [Example 54]	–	≥ 50	≥ 50	≥ 50	–
CC1=C(c2ccccc2)C(CC(O)C2CCN(S(C)(=O)=O)CC2)n2cncc21 (stereo not drawn) [Example 165]	–	≤ 50	≥ 50	≤ 50	–
CC1=C(c2ccccc2)C(CC(=O)c2ccc(-c3cnc[nH]3)cc2)n2cncc21 (stereo not drawn) [Example 67]	> 500	≥ 50	≥ 50	≥ 50	–
CC1=C(c2ccccc2)C(CC(O)C2CCN(C(=O)Cc3ccccc3)CC2)n2cncc21 (stereo not drawn) [Example 180]	< 500	≥ 50	≥ 50	≥ 50	–
CC1=C(c2ccccc2)C(CC(=O)c2cccc(-c3ccccc3F)c2)n2cncc21 (stereo not drawn) [Example 70]	–	≥ 50	≥ 50	≥ 50	–
CC1=C(c2ccccc2)C(CC(=O)c2ccc(-c3ccc(O)cc3)cc2)n2cncc21 (stereo not drawn) [Example 57]	< 500	≥ 50	≥ 50	≤ 50	–
O=C(CC1C(c2ccccc2)=Cc2cncn21)c1ccccc1 (stereo not drawn) [Example 169, 1-Phenyl-2-(6-phenyl-5H-pyrrolo[1,2-c]imidazol-5-yl)-ethanone]	–	≤ 50	≥ 50	–	≥ 50
CC1=C(c2ccccc2)C(CC(O)c2ccc(-c3ccsc3)cc2)n2cncc21 (stereo not drawn) [Example 60]	–	≤ 50	≥ 50	≤ 50	–
